Measured values reported in ChEMBL document CHEMBL1201862, “PubChem BioAssay data set” (2004).
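Results reflect a 48-hour exposure of cells in 96-well plates to compound at five concentrations. The concentration for 50% growth inhibition is given as GI50.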 The source made the active and inactive calls. Rule as the data show it: active = GI50 up to about 1.1 µM and inactive = higher.

Experiments:
Test in all cases: NCI anticancer screen, dose series, 48 h
[1] = tested on: M19-MEL
[2] = tested on: LXFL 529
[3] = tested on: SNB-78
[4] = tested on: XF498
[5] = tested on: DMS-114
[6] = tested on: HOP-18
[7] = tested on: DMS-273
[8] = tested on: RXF 631
[9] = tested on: DLD-1

Structure (SMILES) | GI50 [1] | GI50 [2] | GI50 [3] | GI50 [4] | GI50 [5] | GI50 [6] | GI50 [7] | GI50 [8] | GI50 [9]
Cc1nc2cc3nc4ccccc4c(O)c3cc2s1 | > 100 µM (inactive) | > 100 µM (inactive) | > 100 µM (inactive) | > 100 µM (inactive) | > 100 µM (inactive) | 16.7 µM (inactive) | > 100 µM (inactive) |  | 
CC(=O)/C(=C\C1=CCCO1)C(=O)Nc1ccccc1C | > 100 µM (inactive) | > 100 µM (inactive) | > 100 µM (inactive) | > 100 µM (inactive) | > 100 µM (inactive) | > 100 µM (inactive) |  | > 100 µM (inactive) | > 100 µM (inactive)
COC(=O)N/N=C(\C)CC(=O)Nc1cccc([N+](=O)[O-])c1 | > 100 µM (inactive) | > 100 µM (inactive) | > 100 µM (inactive) | > 100 µM (inactive) | > 100 µM (inactive) |  | > 100 µM (inactive) |  | > 100 µM (inactive)
CCOC(=O)C1(c2ccccc2)CCCNCC1 (stereo not drawn) | > 100 µM (inactive) | > 100 µM (inactive) | > 100 µM (inactive) |  |  | > 100 µM (inactive) | 57.1 µM (inactive) |  | 58.5 µM (inactive)
CC1=N/C(=C\c2cccc([N+](=O)[O-])c2)C(=O)O1 | > 100 µM (inactive) | > 100 µM (inactive) | 86.1 µM (inactive) |  | > 100 µM (inactive) | > 100 µM (inactive) |  |  | > 100 µM (inactive)
CCOC(=O)C(=O)Nc1c(C(C)C)cccc1C(C)C | > 100 µM (inactive) | > 100 µM (inactive) | > 100 µM (inactive) | 54.6 µM (inactive) | > 100 µM (inactive) | > 100 µM (inactive) | > 100 µM (inactive) | > 100 µM (inactive) | > 100 µM (inactive)
CCC1C(=O)OCc2c1cc1n(c2=O)CCC12OCCO2 (stereo not drawn) | > 100 µM (inactive) | > 100 µM (inactive) | > 100 µM (inactive) | > 100 µM (inactive) | > 100 µM (inactive) |  | > 100 µM (inactive) |  | > 100 µM (inactive)
N#CC(C(=O)C(=O)NCCCNC(=O)C(=O)C(C#N)c1ccccc1)c1ccccc1 (stereo not drawn) | > 100 µM (inactive) | > 100 µM (inactive) | > 100 µM (inactive) |  | > 100 µM (inactive) | > 100 µM (inactive) | > 100 µM (inactive) |  | > 100 µM (inactive)
COC(=O)C(CC(=O)Nc1ccc(C)cc1)C(=O)C(=O)Nc1c(C(C)C)cccc1C(C)C (stereo not drawn) | > 100 µM (inactive) | 99.1 µM (inactive) | > 100 µM (inactive) | > 100 µM (inactive) | > 100 µM (inactive) |  |  | > 100 µM (inactive) | > 100 µM (inactive)
O=[N+]([O-])c1cc(I)cc(/C=N/NS(=O)(=O)c2ccc(F)cc2)c1O | 31.2 µM (inactive) | 20.7 µM (inactive) | 23.3 µM (inactive) |  | 24.2 µM (inactive) | 19.7 µM (inactive) | 21.5 µM (inactive) | 23.7 µM (inactive) | 36.5 µM (inactive)
Cc1ccc(S(=O)(=O)C2c3nc4ccccc4cc3-c3nc4ccccc4nc32)cc1 (stereo not drawn) | > 100 µM (inactive) | > 100 µM (inactive) | 67 µM (inactive) | > 100 µM (inactive) | > 100 µM (inactive) |  | > 100 µM (inactive) |  | > 100 µM (inactive)
O=[N+]([O-])c1ccc(NSc2ccccc2)cc1 |  | 14.3 µM (inactive) | 38.3 µM (inactive) | 31.1 µM (inactive) | 21 µM (inactive) | > 100 µM (inactive) | 15.4 µM (inactive) |  | 24.8 µM (inactive)
O=S1(=O)CSc2ccc3ccccc3c2-c2c1ccc1ccccc21 | > 100 µM (inactive) | > 100 µM (inactive) | > 100 µM (inactive) | > 100 µM (inactive) | > 100 µM (inactive) | > 100 µM (inactive) | > 100 µM (inactive) | > 100 µM (inactive) | > 100 µM (inactive)
COc1ccc(CCn2c(=O)c3ccccc3n(C)c2=O)cc1 | 19.3 µM (inactive) | 26.1 µM (inactive) | 36.5 µM (inactive) | 37.2 µM (inactive) | 11.2 µM (inactive) |  |  |  | 28.6 µM (inactive)
NC(=S)N/N=C1\C(=O)N(c2cccc([N+](=O)[O-])c2)C(=O)C1C(=O)Nc1cccc([N+](=O)[O-])c1 (stereo not drawn) | > 100 µM (inactive) | > 100 µM (inactive) | > 100 µM (inactive) |  | > 100 µM (inactive) | 65.3 µM (inactive) | > 100 µM (inactive) |  | > 100 µM (inactive)
O=C(O)c1c[nH]c2c(ccc3ncccc32)c1=O | > 100 µM (inactive) | > 100 µM (inactive) | > 100 µM (inactive) |  | > 100 µM (inactive) | > 100 µM (inactive) | > 100 µM (inactive) |  | > 100 µM (inactive)
CC(=O)OCC1OC(OC2C(CSC3OC(COC(C)=O)C(OC(C)=O)C(OC(C)=O)C3OC(C)=O)OC(OC(C)=O)C(OC(C)=O)C2OC(C)=O)C(OC(C)=O)C(OC(C)=O)C1OC(C)=O (stereo not drawn) | > 100 µM (inactive) | > 100 µM (inactive) | > 100 µM (inactive) | > 100 µM (inactive) | > 100 µM (inactive) |  | > 100 µM (inactive) |  | > 100 µM (inactive)
Nc1c(S(=O)(=O)c2ccc(Cl)cc2)c2nc3ccccc3nc2n2ccnc12 | > 100 µM (inactive) | > 100 µM (inactive) | > 100 µM (inactive) | 65.8 µM (inactive) | 54 µM (inactive) | 22.8 µM (inactive) | 82 µM (inactive) |  | > 100 µM (inactive)
CN(C)CC1CCCC/C1=N/O (stereo not drawn) | > 100 µM (inactive) | > 100 µM (inactive) | > 100 µM (inactive) |  | > 100 µM (inactive) | > 100 µM (inactive) | > 100 µM (inactive) | > 100 µM (inactive) | > 100 µM (inactive)
COc1ccc(Nc2nnc(-c3nsc4ccccc34)s2)cc1 | > 100 µM (inactive) | > 100 µM (inactive) | > 100 µM (inactive) |  | 59.4 µM (inactive) | 0.0149 µM (active) | 47.1 µM (inactive) |  | 
O=C(NS(=O)(=O)c1ccccc1)C(Cc1ccccc1)C(Cc1ccccc1)C(=O)NS(=O)(=O)c1ccccc1 (stereo not drawn) | > 100 µM (inactive) | > 100 µM (inactive) |  |  | > 100 µM (inactive) | > 100 µM (inactive) | > 100 µM (inactive) |  | > 100 µM (inactive)
CN1CCn2c(Br)ccc2C1=O | > 100 µM (inactive) | > 100 µM (inactive) | > 100 µM (inactive) | > 100 µM (inactive) |  |  | > 100 µM (inactive) |  | > 10 µM (inactive)
[O-][S+]1c2ccccc2N=C(c2ccc3ccccc3c2)CC1c1ccccc1F (stereo not drawn) | > 100 µM (inactive) | > 100 µM (inactive) |  | > 100 µM (inactive) | > 100 µM (inactive) | > 100 µM (inactive) | > 100 µM (inactive) | > 100 µM (inactive) | > 100 µM (inactive)
COc1c(Cl)cc(NC(=S)C#N)cc1Cl | 19.5 µM (inactive) | 22.2 µM (inactive) | 26.7 µM (inactive) |  | 15.6 µM (inactive) | 8.53 µM (inactive) | 30.3 µM (inactive) | 19.7 µM (inactive) | 31.7 µM (inactive)
CC1OC(OC2C(OC(=O)[C@]34CCC(C)(C)CC3C3=CCC5[C@@]6(C)C[C@H](O)[C@H](OC7OC(COC8OC(CO)C(O)C(O)C8O)C(O)C(O)C7O)[C@@](C)(C(=O)O)C6CC[C@@]5(C)C3(C)CC4)OCC(O)C2O)C(O)C(O)C1OC1OCC(O)C(O)C1O (stereo partly drawn) | > 100 µM (inactive) |  | > 100 µM (inactive) |  | > 100 µM (inactive) | > 100 µM (inactive) | > 100 µM (inactive) |  | > 100 µM (inactive)
COC1C2C=CC(C2)[C@H]1[N+](=O)[O-] (stereo partly drawn) | > 100 µM (inactive) | > 100 µM (inactive) | > 100 µM (inactive) |  | > 100 µM (inactive) |  | > 100 µM (inactive) | > 100 µM (inactive) | > 100 µM (inactive)
Cc1cc(C)nc(Sc2c([N+](=O)[O-])ncn2C)n1 | > 100 µM (inactive) | 99.8 µM (inactive) | > 100 µM (inactive) | > 100 µM (inactive) | > 100 µM (inactive) | 20.6 µM (inactive) | > 100 µM (inactive) | > 100 µM (inactive) | > 100 µM (inactive)
CC(C)(C)CC(C)(C)c1ccc(OCCOCC[N+](C)(C)Cc2ccccc2)cc1 [BENZETHONIUM CHLORIDE] | 1.53 µM (inactive) | 1.32 µM (inactive) | 1.63 µM (inactive) | 0.377 µM (active) | 1.15 µM (inactive) | 2.79 µM (inactive) | 1.44 µM (inactive) | 11.9 µM (inactive) | 4.21 µM (inactive)
